Data: patent US8110543B2, “Anti-invasive and anti-angiogenic compositions” (Angstrom Pharmaceuticals, Inc., priority 1997, dated 2012)

What was measured:
Acute toxicity in mice = format: in vivo; details: observed for 3 days
Procedure: Acute toxicity was evaluated at three different doses of Å6 (1500 mg/kg, 500 mg/kg and 250 mg/kg). Mice (n=6) were infused (i.v,) with a bolus of Å6 over 5-10 minutes and observed for 3 days.

Mat B-III tumors = assay: Rat syngeneic Mat B-III breast cancer model; format: in vivo
Procedure: The effects of the compounds are tested on tumor progression in a rat syngeneic model of breast cancer (Xing and Rabbani, 1996). Mat BIII rat breast tumor cells (1×10^6 cells in PBS, 0.1 mL per rat) are inoculated into the mammary fat pads of female Fisher rats. The test compound is dissolved in PBS (200 mM stock), sterile filtered and dispensed in vivo at a dose of up to about 100 mg/kg/day) using a 14-day Alza osmotic mini-pump implanted intraperitoneally at the time of inoculation. Control animals receive vehicle (PBS) alone. Animals are euthanized at day 14 and examined for metastasis in the spleen, lungs, liver, kidney and lymph nodes. In addition, the primary tumors are excised, quantitated, and prepared for immunohistochemistry.
The rat syngeneic breast cancer system (Xing and Rabbani, 1996) employs Mat BIIIrat breast cancer cells. When Mat B-III cells (1×10^6 cells) are inoculated into the mammary fat pad of female Fisher rats, they form large tumors which metastasize to regional lymph nodes (LNs) and other distal sites within 14-20 days.
Å6 was initially delivered prophylactically (infusion starting on the day of tumor inoculation) using an Alzet mini-pump that delivered 75 mg/kg/day. […] Metastasis was quantitated by counting the number of macroscopic foci without regard for their size.
Estrogen receptor-positive Mat B-III tumors were used to test combination treatment with Å6 (75 mg/kg/day) and TAM (3 mg/kg/day). In contrast to previous studies, the Mat B-III tumors (inoculated in the mammary fat pad) were staged to 40-50 mm^3 prior to the initiation of treatment. Treatment was continued for 8 days during which time primary tumor growth was measured using calipers (FIG. 14).

[1] = tested on: PC-3 and Mat B III tumor cells
HUVEC = HUVEC proliferation assay; format: cell-based, human
Procedure: HUVEC were plated on gelatin and allowed to adhere for 4 hrs in the presence of 2% FBS. bFGF (1 ng/mL) and the test compounds were added after 4 hours and the % proliferation (where bFGF induced proliferation was 100% and proliferation in the absence of bFGF was 0) was determined using MTS. FIG. 4: the Å6 (50 μg/mL) concentration was kept constant and the concentration of cisplatin (“CDDP”) was varied; FIG. 5: CDDP was kept constant at a sub-optimal dose (1 μg/mL) and Å6 was varied.
Å6 was tested for its ability to inhibit HUVEC proliferation.

[2] = tested on: MDA-MB-231 human breast cancer cells; assay: Matrigel invasion assay, MDA-MB-231 cells; format: cell-based; details: FIG. 7
Procedure: Several peptides were tested for anti-invasive capacity in a Matrigel® invasion assay system as indicated above (Kleinman et al., supra; Parish et al., supra). Several invasive human tumor lines (PC-3, MDA-MB-231) and non-human tumors (3LL, Mat B-III) were examined. The rat breast cancer line Mat B III and the human prostate cancer line PC-3 were initially used.
Tumor cells (5×10^5/mL, in a volume of 200 μL) in serum-free RPMI 1640 medium were added to a disposable transwell invasion chamber coated with Matrigel® (Becton Dickinson, Lincoln Park, N.J.). The invasion chambers were placed in 24-well tissue culture plates filled with serum-free RPMI-1640 and the plates were placed in an atmosphere of 5% CO2 in humidified air at 37° C. for 48-72 hours. The chambers were then removed, inverted, and the cells which had invaded (and now appeared on the bottom face of the invasion chamber) were fixed and stained using Diff-Quick® (Scientific Products). Cells were counted in 10 different fields on each filter and an average obtained.

[3] = mouse, in vivo, iv, 37.5 mg/kg
Procedure: Protein binding studies are presently underway.
Pharmacokinetic analysis was carried out by Gilbert Lam, MicroConstants.

3LL cells = assay: Tumor angiogenesis (microvessel density) in 3LL model; format: in vivo, Mice; details: 100-250 mg/kg/day; compared to controls
Procedure: Angiogenesis is measured by determining microvessel density using immunostaining for CD31 (also known as platelet-endothelial cell adhesion molecule or PECAM). Results are reported as the average microvessel density of 5 fields each from 5 different sections (Penfold et al., 1996). Typically, the whole tumor is excised, sectioned and the sections examined histologically for microvessel density using appropriate stains or labels for other markers.
Angiogenesis induced by tumor growth and metastasis in vivo is examined in the models systems described above. Mice injected with 3LL cells are treated either with peptide or with vehicle and are sacrificed at various time points. Angiogenesis is assessed by determining microvessel density (MVD) using an antibody specific for microvascular endothelium or other markers of growing blood vessels, such as PECAM (CD31). Such an antibody is employed in conventional immunohistological methods to immunostain tissue sections as described by Penfold et al., supra. A large number of such antibodies is commercially available, for example the JC70 mAb. The MVD are correlated with other measures of tumor behavior including lymph node status and primary tumor size and rate of growth. In humans as reported by Penfold et al., supra, tumor MVD correlates with lymph node metastasis and is independent of tumor size, growth rate or type of histological differentiation.
The compounds are given i.v., i.p., or by osmotic minipump Typical dosages are 100-250 mg/kg/day. At various time points, two animals are sacrificed, and the tumor tissue and surrounding tissue is prepared for histological examination. Results are reported as the average microvessel density of 5 fields each from 5 different sections. The following seven compounds are tested: Ac-[…]-Am (SEQ ID NO:2), Ac-[…]-Am (SEQ ID NO: 6) (disubstitution variant at positions 3 and 4), Ac-[…]-Am (SEQ ID NO: 7) (disubstitution variant at positions 7 and 8), Ac-[…]-Am (SEQ ID NO: 8) (substitution variant at position 1), Ac-PSSPPEE-Am (SEQ ID NO: 4) (deletion variant, position 1 of SEQ ID NO:2 deleted), Ac-KPSSPPE-Am (SEQ ID NO: 5) (deletion variant, position 8 of SEQ ID NO:2 deleted), and Ac-[…]-Am (SEQ ID NO:1).

[4] = Alzet mini-pump 75 mg/kg/day from the day of tumor inoculation
[5] = comparative analysis of related peptides

Ac-KPSSPPEE-NH2 [Å6, CH3CO-Lys-Pro-Ser-Ser-Pro-Pro-Glu-Glu-NH2]
overt toxicity (Acute toxicity in mice; 1500, 500 and 250 mg/kg i.v. bolus over 5-10 minutes): No evidence for overt toxicity
survival after acute dosing (Acute toxicity in mice; 1500, 500 and 250 mg/kg i.v. bolus): all the animals survived
LN metastasis (Mat B-III tumors; [4]): inhibition
tumor growth (Mat B-III tumors; [4]): inhibition
number of metastases in the spleen, lungs, liver, kidney and lymph nodes (Mat B-III tumors; [5]): significant reduction
size of the primary tumor (Mat B-III tumors; [5]): significant reduction
necrosis of the primary tumor periphery (Mat B-III tumors; histological analysis, Å6-treated rats): 50-75%
decrease in Factor VIII-positive foci (Mat B-III tumors; tumor sections): 40-60%
TUNEL assay for apoptosis of tumor cells (Mat B-III tumors; Å6-treated groups): stained positive
cytotoxicity to the cells [1]: not cytotoxic
inhibition of cell proliferation ([1]; tumor cells of the invasion assay): nor did it inhibit cell proliferation
potentiation of the anti-proliferative activity of cisplatin (CDDP) against endothelial cells (HUVEC; CDDP 1 μg/mL, Å6 varied (FIG. 5)): did not potentiate
inhibition of HUVEC proliferation (HUVEC; concentrations as high as 312 μg/mL (340 μM), gelatin, 2% FBS): No inhibition
invasion of MDA-MB-231 cells through Matrigel [2]: inhibits the invasion
clearance [3]: 33.3 mL/min/kg
half-life [3]: 12 min
number of microvessels in the region of the primary tumor (3LL cells): significant reduction
